Results from the NIST ThermoML archive (doi:10.1021/je300405a).

Conditions: Liquid; for speed of sound: Pulse-echo method; for mass density: Vibrating tube method

CCCCCCCCCC(=O)OCC [ethyl decanoate]
Conditions	mass density [kg/m3]	speed of sound [m/s]
283.15 K, 101.3 kPa	–	1352.7
283.15 K, 10000 kPa	–	1398.5
283.15 K, 20000 kPa	–	1442.3
283.15 K, 30000 kPa	–	1483.7
283.15 K, 40000 kPa	–	1522.5
283.15 K, 50000 kPa	–	1558.3
283.15 K, 60000 kPa	–	1593.9
283.15 K, 70000 kPa	–	1627
283.15 K, 80000 kPa	–	1658.8
283.15 K, 90000 kPa	–	1689.9
283.15 K, 100000 kPa	–	1720.7
283.15 K, 110000 kPa	–	1753.7
283.15 K, 120000 kPa	–	1781.4
283.15 K, 130000 kPa	–	1808.5
283.15 K, 140000 kPa	–	1834.6
283.15 K, 150000 kPa	–	1860.3
283.15 K, 170000 kPa	–	1908.7
283.15 K, 190000 kPa	–	1951.8
283.15 K, 210000 kPa	–	1998
293.15 K, 101.3 kPa	863.82	–
293.15 K, 10000 kPa	870.79	–
293.15 K, 20000 kPa	877.08	–
293.15 K, 30000 kPa	882.99	–
293.15 K, 40000 kPa	888.58	–
293.15 K, 50000 kPa	893.79	–
293.15 K, 60000 kPa	898.83	–
293.15 K, 70000 kPa	903.51	–
293.15 K, 80000 kPa	907.69	–
293.15 K, 90000 kPa	912.24	–
293.15 K, 100000 kPa	916.37	–
303.15 K, 101.3 kPa	855.53	1275
303.15 K, 10000 kPa	863.17	1325.7
303.15 K, 20000 kPa	869.73	1373.2
303.15 K, 30000 kPa	875.81	1416.8
303.15 K, 40000 kPa	881.53	1458.3
303.15 K, 50000 kPa	887	1498
303.15 K, 60000 kPa	892.12	1535.5
303.15 K, 70000 kPa	897.09	1569.9
303.15 K, 80000 kPa	901.73	1603.2
303.15 K, 90000 kPa	906.27	1635.3
303.15 K, 100000 kPa	910.56	1666.2
303.15 K, 110000 kPa	–	1696.2
303.15 K, 120000 kPa	–	1724.8
303.15 K, 130000 kPa	–	1752.9
303.15 K, 140000 kPa	–	1779.2
303.15 K, 150000 kPa	–	1805.4
303.15 K, 170000 kPa	–	1854.6
303.15 K, 190000 kPa	–	1902.4
303.15 K, 210000 kPa	–	1947.7
313.15 K, 101.3 kPa	847.99	–
313.15 K, 10000 kPa	855.19	–
313.15 K, 20000 kPa	862	–
313.15 K, 30000 kPa	868.5	–
313.15 K, 40000 kPa	874.4	–
313.15 K, 50000 kPa	880	–
313.15 K, 60000 kPa	885.4	–
313.15 K, 70000 kPa	890.5	–
313.15 K, 80000 kPa	895.4	–
313.15 K, 90000 kPa	900	–
313.15 K, 100000 kPa	904.4	–
323.15 K, 101.3 kPa	839.75	1203.1
323.15 K, 10000 kPa	847.49	1258.2
323.15 K, 20000 kPa	854.78	1309.5
323.15 K, 30000 kPa	861.46	1355.9
323.15 K, 40000 kPa	867.52	1399.1
323.15 K, 50000 kPa	873.23	1439.4
323.15 K, 60000 kPa	879.07	1478.4
323.15 K, 70000 kPa	884.28	1515.1
323.15 K, 80000 kPa	889.28	1550.3
323.15 K, 90000 kPa	894.05	1583.7
323.15 K, 100000 kPa	898.41	1615.7
323.15 K, 110000 kPa	–	1645.8
323.15 K, 120000 kPa	–	1676.7
323.15 K, 130000 kPa	–	1705.7
323.15 K, 140000 kPa	–	1733.7
323.15 K, 150000 kPa	–	1760.3
323.15 K, 170000 kPa	–	1811.6
323.15 K, 190000 kPa	–	1861.2
323.15 K, 210000 kPa	–	1909.8
333.15 K, 101.3 kPa	831.19	–
333.15 K, 10000 kPa	839.38	–
333.15 K, 20000 kPa	846.93	–
333.15 K, 30000 kPa	853.95	–
333.15 K, 40000 kPa	860.39	–
333.15 K, 50000 kPa	866.43	–
333.15 K, 60000 kPa	872.17	–
333.15 K, 70000 kPa	877.53	–
333.15 K, 80000 kPa	882.56	–
333.15 K, 90000 kPa	887.46	–
333.15 K, 100000 kPa	892.18	–
343.15 K, 101.3 kPa	822.9	1133.3
343.15 K, 10000 kPa	831.45	1192.8
343.15 K, 20000 kPa	839.59	1247
343.15 K, 30000 kPa	846.94	1297.2
343.15 K, 40000 kPa	853.75	1343
343.15 K, 50000 kPa	860.03	1385.7
343.15 K, 60000 kPa	865.88	1425.7
343.15 K, 70000 kPa	871.46	1463.9
343.15 K, 80000 kPa	876.76	1500.3
343.15 K, 90000 kPa	881.86	1535.3
343.15 K, 100000 kPa	886.72	1568.4
343.15 K, 110000 kPa	–	1600.4
343.15 K, 120000 kPa	–	1631.5
343.15 K, 130000 kPa	–	1661.5
343.15 K, 140000 kPa	–	1690
343.15 K, 150000 kPa	–	1717.3
343.15 K, 170000 kPa	–	1769.7
343.15 K, 190000 kPa	–	1818.5
343.15 K, 210000 kPa	–	1865
353.15 K, 101.3 kPa	814.4	–
353.15 K, 10000 kPa	823.62	–
353.15 K, 20000 kPa	832.14	–
353.15 K, 30000 kPa	839.63	–
353.15 K, 40000 kPa	846.7	–
353.15 K, 50000 kPa	853.22	–
353.15 K, 60000 kPa	859.34	–
353.15 K, 70000 kPa	865.16	–
353.15 K, 80000 kPa	870.61	–
353.15 K, 90000 kPa	875.77	–
353.15 K, 100000 kPa	880.75	–
363.15 K, 101.3 kPa	806.38	1065.9
363.15 K, 10000 kPa	815.94	1130.1
363.15 K, 20000 kPa	824.71	1188.5
363.15 K, 30000 kPa	832.73	1241.2
363.15 K, 40000 kPa	840.08	1289.6
363.15 K, 50000 kPa	846.82	1334.7
363.15 K, 60000 kPa	853.11	1376.5
363.15 K, 70000 kPa	859.26	1415.4
363.15 K, 80000 kPa	864.82	1452.8
363.15 K, 90000 kPa	870.11	1488.9
363.15 K, 100000 kPa	875.14	1522.8
363.15 K, 110000 kPa	–	1556
363.15 K, 120000 kPa	–	1586.9
363.15 K, 130000 kPa	–	1617.1
363.15 K, 140000 kPa	–	1646.6
363.15 K, 150000 kPa	–	1675.1
363.15 K, 170000 kPa	–	1727.6
363.15 K, 190000 kPa	–	1777
363.15 K, 210000 kPa	–	1824.5
373.15 K, 101.3 kPa	797.32	–
373.15 K, 10000 kPa	807.87	–
373.15 K, 20000 kPa	817.14	–
373.15 K, 30000 kPa	825.49	–
373.15 K, 40000 kPa	833.44	–
373.15 K, 50000 kPa	840.48	–
373.15 K, 60000 kPa	847.06	–
373.15 K, 70000 kPa	853.14	–
373.15 K, 80000 kPa	859.2	–
373.15 K, 90000 kPa	864.65	–
373.15 K, 100000 kPa	869.76	–
383.15 K, 101.3 kPa	789.45	1001.3
383.15 K, 10000 kPa	800.55	1071.1
383.15 K, 20000 kPa	810.35	1132.9
383.15 K, 30000 kPa	819.06	1188.3
383.15 K, 40000 kPa	826.96	1239.3
383.15 K, 50000 kPa	834.28	1286.4
383.15 K, 60000 kPa	841.17	1329.7
383.15 K, 70000 kPa	847.62	1370.2
383.15 K, 80000 kPa	853.58	1408.3
383.15 K, 90000 kPa	859.32	1445
383.15 K, 100000 kPa	864.87	1480
383.15 K, 110000 kPa	–	1513.4
383.15 K, 120000 kPa	–	1545.8
383.15 K, 130000 kPa	–	1576.6
383.15 K, 140000 kPa	–	1606.2
383.15 K, 150000 kPa	–	1634.6
383.15 K, 170000 kPa	–	1687.7
383.15 K, 190000 kPa	–	1740.7
383.15 K, 210000 kPa	–	1786.8
393.15 K, 101.3 kPa	780.85	–
393.15 K, 10000 kPa	792.15	–
393.15 K, 20000 kPa	802.27	–
393.15 K, 30000 kPa	811.47	–
393.15 K, 40000 kPa	819.79	–
393.15 K, 50000 kPa	827.43	–
393.15 K, 60000 kPa	834.45	–
393.15 K, 70000 kPa	840.99	–
393.15 K, 80000 kPa	847.2	–
393.15 K, 90000 kPa	852.99	–
393.15 K, 100000 kPa	858.42	–
403.15 K, 101.3 kPa	–	937.8
403.15 K, 10000 kPa	–	1013.4
403.15 K, 20000 kPa	–	1080.3
403.15 K, 30000 kPa	–	1138.6
403.15 K, 40000 kPa	–	1191.3
403.15 K, 50000 kPa	–	1240.5
403.15 K, 60000 kPa	–	1285.9
403.15 K, 70000 kPa	–	1328.1
403.15 K, 80000 kPa	–	1367.6
403.15 K, 90000 kPa	–	1404.6
403.15 K, 100000 kPa	–	1439.8
403.15 K, 110000 kPa	–	1473.4
403.15 K, 120000 kPa	–	1506.4
403.15 K, 130000 kPa	–	1537.5
403.15 K, 140000 kPa	–	1567.3
403.15 K, 150000 kPa	–	1596.2
403.15 K, 170000 kPa	–	1650.9
403.15 K, 190000 kPa	–	1702.8
403.15 K, 210000 kPa	–	1751.8
